Data reported in patent publication US5086072A, “Treatment of mood disorders with functional antagonists of the glycine/NMDA receptor complex” (The United States of America as represented by the …, priority 1990, dated 1992).
Where two headings read alike, the source gives them in different places.

What was measured:
[1] = forced swim test, duration of immobility during last 4 minutes of 6 minute swim; format: in vivo, mice (male NIH/HSD); conditions: for IMMOBILITY %: change versus control; for minimal effective dose: Mus musculus, read-out: minimum effective dose, swim-induced immobility
Description: (§1) Certain exemplary compounds encompassed hereby were evaluated pharmacologically in mice using the forced swim (8) and/or tail suspension (9) tests. These tests were initially designed to detect potential antidepressant agents (13, 14) based on the abilities of clinically effective antidepressants to reduce the immobility that animals typically display after active and unsuccessful escape attempts when subjected to these inescapable stressors. Moreover, the predictive validity (15) and pharmacological specificity (13, 14) of these tests has led to the proposal that they represent animal models of depression. (16)
The duration of immobility was measured during the […]
Values represent means ± standard error of the mean. The number of animals examined in the forced swim test was: VEH, 40; ACPC 25 mg/kg, 11 and 50-600 mg/kg, 10. In the open field, the number of animals tested was: VEH 23; 50 and 600 mg/kg, 5; and 100-400 mg/kg, 10. Male NIH/HSD mice (25-30 g) were injected i.p. with ACPC dissolved in saline. Controls received an equivalent volume of saline. […] (8) The ambulatory time in an open field was measured for five minutes, fifteen minutes after injection of ACPC as described in Table 1.
(§2) Glycine (800 mg/kg) or an equivalent volume of saline was administered intraperitoneally to NIH/HSD mice 45 minutes prior to ACPC (400 mg/kg). Fifteen minutes after ACPC administration, animals were evaluated in the forced swim test or in an open field as described in Table 1. This dose of glycine was selected based on a previous report (40), showing that parenteral administration of large doses is required to elevate cerebral levels of glycine. […] Amino acid levels were determined using HPLC/EC with an isocratic separation method and pre-column amino acid derivatization with o-pthalaldehyde and β-mercaptoethano (41).

[2] = 60 min after 800 mg/kg i.p.; data not shown
Description: as §2

[3] = format: in vivo, mice (male NIH/HSD); conditions: for ACTIVITY (time spent ambulating in an open field): 30 min before test, mean ± SEM
[4] = format: in vivo, mice (male NIH/HSD); conditions: for ACTIVITY (time spent ambulating in an open field): mean ± SEM
Description: Values represent means ± standard error of the mean. The number of animals examined in the forced swim test was: VEH, 40; ACPC 25 mg/kg, 11 and 50-600 mg/kg, 10. In the open field, the number of animals tested was: VEH 23; 50 and 600 mg/kg, 5; and 100-400 mg/kg, 10. Male NIH/HSD mice (25-30 g) were injected i.p. with ACPC dissolved in saline. Controls received an equivalent volume of saline. Fifteen minutes later, mice were placed in a cylinder (diameter: 10 cm; height: 25 cm) filled with 6 cm of water (22°-25° C.) and the duration of immobility during the last four minutes of forced swim was measured as described. (8) The ambulatory time in an open field was measured for five minutes, fifteen minutes after injection of ACPC as described in Table 1.
as §2

[5] = forced swim and/or tail suspension tests (overall conclusion); format: in vivo, mice
Description: as §1

NMDA receptor complex = conditions: cited from earlier work
[6] = behavioral effects and lethality observed in connection with forced swim; conditions: for behavioral effects prior to forced swim: I2CA 25-200, HA-966 2.5-10, ACBC 50-100 mg/kg; for lethality combined with forced swim: I2CA 25-200, HA-966 2.5-10 mg/kg
Description: (§3) Inset: Effects of ACPC on tail suspension-induced immobility. Values are mean standard error of immobility (sec.) during a 6 minute test. The number of animals used in this test was: VEH, 16; ACPC, 200 mg/kg, 6; 300 mg/kg, 9 and 400 mg/kg, 7. Male C57Bl/6J mice [20-25 g](Jackson Laboratories, Bar Harbor, ME) were injected with ACPC. Fifteen minutes later, mice were suspended by the tail and the duration of immobility measured as described. […] 7-chlorokynurenic acid (25-150 mg/kg), indole2-carboxylic acid (I2CA) (25-200 mg/kg), 3-amino-1-hydroxypyrrolidone (HA-966) (2.5-10 mg/kg), cycloleucine (100-400 mg/kg) and 1-aminocyclobutanecarboxylic acid (ACBC) (50-100 mg/kg) were tested under identical conditions to those employed for the other agents (Table 1 and FIG. 1).

[7] = tail suspension test, duration of immobility; format: in vivo, mice (male C57Bl/6J); conditions: 200-400 mg/kg, 15 min before test; F(2,31)=29, p<0.0001
Description: as §3

[8] = ambulatory time in the open field (tail suspension study); format: in vivo, C57Bl/6J mice; conditions: 400 mg/kg
[9] = molecular target: strychnine-insensitive glycine receptors; conditions: cited from earlier work
[10] = molecular target: strychnine sensitive glycine receptors; conditions: cited from earlier work
[11] = system: NMDA-gated cation channel; conditions: compared with glycine; cited from earlier work
[12] = cited from earlier work
[13] = cited from earlier work; remark: listed apart in the source
[14] = 0.1 mg/kg i.p., 15 min before test
[15] = 0.5 mg/kg i.p., 15 min before test
[16] = 1 mg/kg i.p., 15 min before test
[17] = 7-chlorokynurenic acid 25-150, I2CA 25-200, HA-966 2.5-10, cycloleucine 100-400, ACBC 50-100 mg/kg

Compound: NCC(=O)O [glycine]
- intrinsic activity in the forced swim test ([1]; mouse, in vivo): devoid of intrinsic activity
- concentrations of other amino acids (glutamate, serine, taurine, GABA, alanine) in the hippocampus [2]: unchanged
- intrinsic activity in the open field ([3]; mouse, in vivo): devoid of intrinsic activity

Compound: C[C@]12N[C@H](Cc3ccccc31)c1ccccc12 (racemic) [MK-801, (+)-5-methyl-10,11-dihydro-5H-dibenzo[a,d]cycloheptene-5, 10-imine]
- IMMOBILITY % [1, 14]: -43%
- IMMOBILITY ([1]; 0.1 mg/kg i.p., 15 min before test, mean ± SEM): 80 ± 10 s
- maximum reduction of duration of immobility ([1]; 0.5 mg/kg): 92%
- IMMOBILITY % [1, 15]: -92%
- IMMOBILITY ([1]; 0.5 mg/kg i.p., 15 min before test, mean ± SEM): 11 ± 4 s
- IMMOBILITY % [1, 16]: -54%
- IMMOBILITY ([1]; 1 mg/kg i.p., 15 min before test, mean ± SEM): 64 ± 23 s
- reduction of duration of immobility ([1]; 0.1 and 1 mg/kg): 43-54%
- effect on duration of immobility in the forced swim test ([1]; biphasic, doses of Table 1): reduced significantly the duration of immobility
- ACTIVITY (time spent ambulating in an open field) [4, 14]: 144 ± 4 s
- increase in ambulatory time in an open field ([4]; 0.5 mg/kg): 34%
- ACTIVITY % ([4]; 0.5 mg/kg i.p., 15 min before test, change versus control): +34%
- ACTIVITY (time spent ambulating in an open field) [4, 15]: 201 ± 3 s
- ACTIVITY (time spent ambulating in an open field) [4, 16]: 170 ± 14 s
- effect on ambulatory time ([4]; 0.1 and 1 mg/kg): did not alter ambulatory time
- activity in the antidepressant models [5]: mimic clinically effective antidepressants in these models
- activity at the NMDA receptor complex (NMDA receptor complex): non-competitive NMDA antagonist

Compound: COC(=O)C1(N)CC1 [ACPCM, methyl 1-aminocyclopropanecarboxylate]
- minimal effective dose ([1]; Table 2): 50 mg/kg
- IMMOBILITY ([1]; Table 2, 25 mg/kg): 126 ± 8 s
- IMMOBILITY % ([1]; Table 2, 25 mg/kg): -8%
- IMMOBILITY ([1]; Table 2, 50 mg/kg): 89 ± 17 s
- IMMOBILITY % ([1]; Table 2, 50 mg/kg): -35%
- IMMOBILITY ([1]; Table 2, 100 mg/kg): 40 ± 18 s
- IMMOBILITY % ([1]; Table 2, 100 mg/kg): -71%
- IMMOBILITY ([1]; Table 2, 150 mg/kg): 69 ± 10 s
- IMMOBILITY % ([1]; Table 2, 150 mg/kg): -50%

Compound: NC1(C(=O)O)CCC1 [ACBC, 1-aminocyclobutanecarboxylic acid]
- effect on immobility in the forced swim test [1, 17]: did not reduce immobility in the forced swim test
- behavioral effects prior to forced swim [6]: marked behavioral effects, including ataxia

Compound: O=C(O)c1cc(O)c2ccc(Cl)cc2n1 [7-chlorokynurenic acid]
- effect on immobility in the forced swim test [1, 17]: did not reduce immobility in the forced swim test

Compound: NC1(C(=O)O)CC1 [ACPC, 1-aminocyclopropanecarboxylic acid]
- minimal effective dose [1]: 100 mg/kg
- effect of glycine on the action of ACPC in the forced swim test ([1]; mouse, in vivo): completely abolished
- effect on immobility in the forced swim test ([1]; mouse, in vivo): reduced immobility in the forced swim test in a dosedependent fashion
- maximum reduction of immobility in the forced swim test ([1]; mouse, in vivo): 65%
- further effect on immobility at higher doses ([1]; mouse, in vivo, 200 mg/kg): no further reductions in immobility
- increase in ambulatory time ([4]; 600 mg/kg, F(5,60)=10, p<0.0001): 29%
- effect of glycine on the locomotor effects of ACPC in the open field ([4]; glycine 800 mg/kg i.p. 45 min prior to ACPC 400 mg/kg): partial antagonism
- effect on immobility in the tail suspension test [7]: reduction in immobility
- increase in ambulatory time in the open field [8]: 18%
- activity in the antidepressant models [5]: mimic clinically effective antidepressants in these models
- Ki [9]: ~0.032 µM
- activity at the strychnine-insensitive glycine binding site [9]: potent and selective partial agonist
- IC50 [10]: > 1000 µM
- efficacy in stimulating [3H]MK-801 binding [11]: significantly less efficacious than glycine
- anticonflict actions in animal models [12]: possesses anticonflict actions in animal models
- muscle relaxation or ataxia [13]: do not produce the muscle relaxation or ataxia

Compound: NC1(C(=O)O)CCCC1 [cycloleucine]
- effect on immobility in the forced swim test [1, 17]: did not reduce immobility in the forced swim test

Compound: O=C(O)c1cc2ccccc2[nH]1 [I2CA, indole2-carboxylic acid]
- effect on immobility in the forced swim test [1, 17]: did not reduce immobility in the forced swim test
- lethality combined with forced swim [6]: lethal when combined with forced swim
- behavioral effects prior to forced swim [6]: marked behavioral effects, including ataxia

Compound: NC1CCN(O)C1=O (stereo not drawn) [HA-966, 3-amino-1-hydroxypyrrolidone]
- effect on immobility in the forced swim test [1, 17]: did not reduce immobility in the forced swim test
- lethality combined with forced swim [6]: lethal when combined with forced swim
- behavioral effects prior to forced swim [6]: marked behavioral effects, including ataxia

Compound: NC(CCCCCP(=O)(O)O)C(=O)O (stereo not drawn) [AP-7, 2-amino-7-phosphonoheptanoic acid]
- IMMOBILITY ([1]; 40 mg/kg i.p., 30 min before test, mean ± SEM): 141 ± 21 s
- IMMOBILITY ([1]; 80 mg/kg i.p., 30 min before test, mean ± SEM): 153 ± 9 s
- IMMOBILITY % ([1]; 100 mg/kg i.p., 30 min before test): -35%
- IMMOBILITY ([1]; 100 mg/kg i.p., 30 min before test, mean ± SEM): 93 ± 8 s
- IMMOBILITY % ([1]; 200 mg/kg i.p., 30 min before test): -62%
- IMMOBILITY ([1]; 200 mg/kg i.p., 30 min before test, mean ± SEM): 55 ± 13 s
- effect on duration of immobility in the forced swim test ([1]; F(4,71) = 17, p<0.0001): significant, dose dependent reduction in the duration of immobility
- effect on ambulatory time in an open field ([4]; doses of Table 1): without affecting ambulatory time
- activity in the antidepressant models [5]: mimic clinically effective antidepressants in these models
- ACTIVITY (time spent ambulating in an open field) ([3]; 40 mg/kg i.p.): 144 ± 5 s
- ACTIVITY (time spent ambulating in an open field) ([3]; 80 mg/kg i.p.): 167 ± 16 s
- ACTIVITY (time spent ambulating in an open field) ([3]; 100 mg/kg i.p.): 153 ± 5 s
- ACTIVITY (time spent ambulating in an open field) ([3]; 200 mg/kg i.p.): 134 ± 10 s
- activity at the NMDA receptor complex (NMDA receptor complex): competitive antagonist
